One series deals with Caco-2 monolayer. The experiment in a line: Caco-2 Permeability Assay. The series is classed as in vitro ADME, human. Summed up:
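Bidirectional transport at 37 °C for 90 min, 10 μM donor concentration, with or without Pgp inhibitor, across 21-day Caco-2 monolayers with TEER >600 […] in HEPES-buffered HBSS, pH 7.4. LC-MS/MS of donor and receiver samples gives Papp, B→A/A→B efflux ratio and mass recovery.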
For orientation: Passage across Caco-2 layers is used to estimate intestinal permeability.

A short description of series [1]: Stability in Simulated Gastric Fluid (SGF). It counts as in vitro ADME. Also noted: key: % parent compound remaining relative to 0-minute sample. The note with it: % remaining @ 1 h. In short, it runs like this: (§1)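 Each compound is spiked to a final 2 μg/mL into SGF with pepsin (pH 1.2) and into SIF with pancreatin (pH 6.8). Samples shake at 37° C, aliquots are taken between 0 and 60 minutes, precipitated with acetonitrile and analysed by LC-MS/MS. Degradation half-life is derived from the natural-log plot where time points allow.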

A short description of series [2]: Stability in Simulated Intestinal Fluid (SIF). Details: key: % parent compound remaining relative to 0-minute sample. The note with it: % remaining @ 1 h. It counts as in vitro ADME. Summed up: as §1
Another series is described as follows: Plasma Stability. The series is classed as in vitro ADME, human. The note with it: % remaining @ 1 h. Summed up: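 Parent compound quantified by LC-MS/MS after acetonitrile precipitation, reported as percent of control remaining (triplicate). Incubation: 1 hour, 37° C, fresh human plasma, compound at 1 μM.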

Consider “{4-oxo-1-[2-(propan-2-yloxy)ethyl]-2-sulfanylidene-1H,2H,3H,4H,5H-pyrrolo[3,2-d]pyrimidin-5-yl}methyl (2R)-2-{[(tert-butoxy)carbonyl]amino}propanoate [Example 291]”, for which, in the series on Caco-2 monolayer, the “Caco-2 Papp” value was 21.9 ×10⁻⁶ cm/s. Further, the SGF in series [1] is 66% @ 1 h. Also, in series [2], the SIF is 30% @ 1 h. For the same substance, the “human Plasma stability” value in “Plasma Stability” turned out to be 0% @ 1 h.

Source of the values: patent US20240067651A1 (Biohaven Therapeutics Ltd., priority 2019, published 2024).
